This note sets out measurements from patent US9365548B2, “Benzoimidazol-2-yl pyrimidines and pyrazines as modulators of the histamine H4 receptor” (Janssen Pharmaceutica NV, priority 2006, dated 2016).

For this test, the target named is T1, Recombinant Human Histamine H4 Receptor (Homo sapiens, UniProt Q9H3N8).
T1 construct: expressed in transfected cells; host or cells: SK-N-MC cells or COS7 cells, transiently transfected; cell membranes used
T1 sequence (Q9H3N8 whole entry): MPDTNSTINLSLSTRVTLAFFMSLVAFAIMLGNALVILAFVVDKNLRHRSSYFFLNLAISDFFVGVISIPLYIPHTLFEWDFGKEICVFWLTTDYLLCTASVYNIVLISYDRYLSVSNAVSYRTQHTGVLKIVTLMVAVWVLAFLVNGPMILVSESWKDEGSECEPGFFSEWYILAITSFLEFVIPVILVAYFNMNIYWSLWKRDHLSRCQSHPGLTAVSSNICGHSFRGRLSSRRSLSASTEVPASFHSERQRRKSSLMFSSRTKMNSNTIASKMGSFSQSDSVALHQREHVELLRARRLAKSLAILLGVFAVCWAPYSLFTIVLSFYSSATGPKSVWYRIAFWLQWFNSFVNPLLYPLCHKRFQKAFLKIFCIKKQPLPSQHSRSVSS
The test is described as follows: Binding Assay on Recombinant Human Histamine H4 Receptor. To be noted: competition binding with 3H-histamine, membranes of SK-N-MC or COS7 cells expressing human histamine H4 receptor; Ki by Cheng-Prusoff (KD 5 nM, ligand 5 nM); average of results obtained. The source says:
Additional examples of embodiments of this invention are provided by hemitartrate salts of compounds of Formula (I) and by hydrates, such as monohydrates and dihydrates, of compounds of Formula (I). […]
Regarding `Cc1nc(NCCCC2CCN(C)CC2)ncc1-c1nc2cc(C#N)ccc2[nH]1` [Example 36, 2-{4-Methyl-2-[3-(1-methyl-piperidin-4-yl)-propylamino]-pyrimidin-5-yl}-1H-benzoimidazole-5-carbonitrile], the Ki (usually a dissociation constant, usually derived from enzyme kinetics or from competition with a known ligand) was 170 nM.

Consider `COc1ccc2[nH]c(-c3cnc(NCCCC4CCN(C)CC4)nc3C)nc2c1` [Example 37, [5-(5-Methoxy-1H-benzoimidazol-2-yl)-4-methyl-pyrimidin-2-yl]-[3-(1-methyl-piperidin-4-yl)-propyl]-amine], for which the Ki worked out at 81 nM.

As for `Cc1nc(NCCCC2CCN(C)CC2)ncc1-c1nc2c(Cl)cc(C(F)(F)F)cc2[nH]1` [Example 38, [5-(4-Chloro-6-trifluoromethyl-1H-benzoimidazol-2-yl)-4-methyl-pyrimidin-2-yl]-[3-(1-methyl-piperidin-4-yl)-propyl]-amine], the Ki stood at 2 nM.

In the case of `Cc1nc(NCCCC2CCN(C)CC2)ncc1-c1nc2cc(Cl)c(F)cc2[nH]1` [Example 39, [5-(5-Chloro-6-fluoro-1H-benzoimidazol-2-yl)-4-methyl-pyrimidin-2-yl]-[3-(1-methyl-piperidin-4-yl)-propyl]-amine], the Ki came to 15 nM.

With `Cc1nc(NCCCC2CCN(C)CC2)ncc1-c1nc2cc(Cl)ccc2[nH]1` [Example 40, [5-(5-Chloro-1H-benzoimidazol-2-yl)-4-methyl-pyrimidin-2-yl]-[3-(1-methyl-piperidin-4-yl)-propyl]-amine], the Ki turned out to be 7 nM.

For the compound `Cc1nc(NCCCC2CCN(C)CC2)ncc1-c1nc2cc(Cl)c(Cl)cc2[nH]1` [Example 41, [5-(5,6-Dichloro-1H-benzoimidazol-2-yl)-4-methyl-pyrimidin-2-yl]-[3-(1-methyl-piperidin-4-yl)-propyl]-amine], the Ki was 6 nM.

Consider `CCc1nc(NCCCC2CCN(C)CC2)ncc1-c1nc2c(C)cc(C)cc2[nH]1` [Example 42, [5-(4,6-Dimethyl-1H-benzoimidazol-2-yl)-4-ethyl-pyrimidin-2-yl]-[3-(1-methyl-piperidin-4-yl)-propyl]-amine], for which the Ki was 22 nM.

As for `CCc1nc(NCCCC2CCN(C)CC2)ncc1-c1nc2c(C)cccc2[nH]1` [Example 43, [4-Ethyl-5-(4-methyl-1H-benzoimidazol-2-yl)-pyrimidin-2-yl]-[3-(1-methyl-piperidin-4-yl)-propyl]-amine], the Ki was 110 nM.

Turning to `Cc1cccc2[nH]c(-c3cnc(NCCCC4CCN(C)CC4)nc3C3CC3)nc12` [Example 44, [4-Cyclopropyl-5-(4-methyl-1H-benzoimidazol-2-yl)-pyrimidin-2-yl]-[3-(1-methyl-piperidin-4-yl)-propyl]-amine], the Ki came out at 560 nM.

As to `Cc1ccc2[nH]c(-c3cnc(NCCCC4CCN(C)CC4)nc3C3CC3)nc2c1C` [Example 45, [4-Cyclopropyl-5-(4,5-dimethyl-1H-benzoimidazol-2-yl)-pyrimidin-2-yl]-[3-(1-methyl-piperidin-4-yl)-propyl]-amine], the Ki is 390 nM.

Regarding `Cc1cc(F)cc2[nH]c(-c3cnc(NCCCC4CCN(C)CC4)nc3C3CC3)nc12` [Example 46, [4-Cyclopropyl-5-(6-fluoro-4-methyl-1H-benzoimidazol-2-yl)-pyrimidin-2-yl]-[3-(1-methyl-piperidin-4-yl)-propyl]-amine], the Ki was 230 nM.

Consider `Cc1cc(C)c2nc(-c3cnc(NCCCC4CCN(C)CC4)nc3C3CC3)[nH]c2c1` [Example 47, [4-Cyclopropyl-5-(4,6-dimethyl-1H-benzoimidazol-2-yl)-pyrimidin-2-yl]-[3-(1-methyl-piperidin-4-yl)-propyl]-amine], for which the Ki is 99 nM.

As for `Cc1c(F)ccc2[nH]c(-c3cnc(NCCCC4CCN(C)CC4)nc3C3CC3)nc12` [Example 48, [4-Cyclopropyl-5-(5-fluoro-4-methyl-1H-benzoimidazol-2-yl)-pyrimidin-2-yl]-[3-(1-methyl-piperidin-4-yl)-propyl]-amine], the Ki is 140 nM.

Take “[5-(4,5-Dimethyl-1H-benzoimidazol-2-yl)-4-ethyl-pyrimidin-2-yl]-methyl-[3-(1-methyl-piperidin-4-yl)-propyl]-amine [Example 8]”: the Ki turned out to be 29 nM.
